From patent US7192931B2, “Treatment of demyelinating diseases” (Neuren Pharmaceuticals Ltd., priority 2000, dated 2007)

How the values were obtained:
Format in all cases: in vivo, mouse
[1] = tested on: C57Bl/6 mice with MOG35-55 peptide-induced EAE; assay: Clinical scoring of MOG35-55-induced EAE; settings: for effectiveness of prolonged treatment on disease severity / effect on advanced EAE (clinical symptoms): advanced disease; for effectiveness of prolonged treatment on disease severity: prolonged treatment from day 60 (FIG. 1C); for effect on advanced EAE (clinical symptoms): mAb three injections from day 51, neuroprotectors 7 days from day 60 (FIG. 1B); for effect on development of EAE (clinical symptoms): early disease, treatment from day 35 (FIG. 1A)
Experimental: C57Bl/6 mice (8–10 week old) were injected subcutaneously in one flank with 300 μg of MOG35-55 peptide ([…]: SEQ ID NO:1) synthesized by Mimotapes Pty Ltd, Clayton, Australia and emulsified in CFA containing 500 μg of Mycobacterium tuberculosis H37Ra (DIFCO Laboratories, Detrit, USA). They also received 500 ng of pertussis toxin (List Biological Laboratories, CA, USA) in 200 μl PBS intravenously via the tail vein, followed 48 hours later by a second dose. A second injection of MOG peptide was given in the absence of pertussis toxin one week later in the opposite flank, as described previously (Kanwar et al., 2000b).
Two treatment protocols were employed, involving the treatment of early disease, versus advanced disease. For early disease, reagents were administered at day 35 (following MOG injection). Antibody was administered thrice on alternate days, whereas neuroprotectors were given daily for 6 days, where 50% of reagent was given ip and 50% iv. In the treatment of advanced disease, therapy as above was initiated at day 60, with either three or eight anti-MAdCAM-1 mAb injections, and neuroprotectors given daily for either 7 or 18 days.
The mice were monitored daily and scored according to the following scale: 0, no clinical signs of EAE; 1, limp tail; 2, partial hind limb paralysis; 3, complete hind limb paralysis; 4, complete hind limb and partial fore limb paralysis; 5, paralysis extending to diaphragm; 6, hind and fore limb paralysis; 7, death due to EAE. Paralysis extending to the diaphragm was denoted as difficulty in remaining upright. […] The daily mean clinical score for each group is the mean disease score of at least five mice. The body weight of animals was measured regularly throughout the experiments. The expanded disability status scale for EAE treated mice was scored using an earlier published scoring system (Villoslada et al. 2000).
The rat hybridoma MECA-367 (rat IgG2a),5 which secretes a mAb against mouse MAdCAM-1 was either provided by Dr Eugene Butcher, Stanford University, Stanford, Calif. (FIGS. 1A and B), or obtained directly from the American Type Culture Collection, Rockville, Md. (FIG. 1C, and remainder of studies). Rat IgG obtained from Sigma Co., USA, served as a control. Antibodies were administered into the tail vein (70% of mAb) and intraperitoneally (30% of mAb) at 10 mg/Kg separately or in combination on alternate days at the time points indicated (FIGS. 1–4). The rat IgG control antibody was also administered at 10 mg/Kg. Backbones from sacrificed mice were frozen in isopentane at −70° C. Transverse 10 μm sections made through the spinal cord of control and diseased mice, in each case made at the same levels of the cord, were mounted on poly L-lysine-coated slides, and stained with haematoxylin and eosin.

[2] = tested on: apoptotic cells in spinal cord of EAE mice; assay: In situ detection of apoptotic cells in the CNS by TUNEL assay; settings: spinal cord sections, compared to mice mock treated with PBS or rat IgG
Experimental: Cells undergoing apoptosis were identified using the in situ TUNEL assay. Five-μm thick serial sections of brain and spinal cord were prepared to detect apoptosis by TUNEL (i.e., terminal deoxynucleotidyl transferase-mediated deoxyuridine triphosphate-digoxigenin nick end labeling) staining using the In Situ Apoptosis Detection Kit from Boehringer Mannheim (Germany). Briefly, frozen sections were fixed in 4% paraformaldehyde, permeabilized in 0.1% Triton X-100, incubated with 20 μL TUNEL reagent for 60 minutes at 37° C., and then examined by fluorescence microscopy. Adjacent sections were counterstained with hematoxylin and mounted onto poly-L-lysine coated slides to allow the total number of nucleated cells to be counted. The percentage of apoptotic cells was assessed in ten randomly selected fields viewed at 40× magnification. The apoptotic index (AI) was calculated as follows: AI=number of apoptotic (TUNEL-positive) cells×100/total number of nucleated cells.

[3] = tested on: dephosphorylated neurofilament-H; assay: Axonal damage: dephosphorylated neurofilament-H in spinal cord (Western blot, immunohistochemistry); settings: for average relative densities of neurofilament-H: spinal cord homogenates, Western blot, 6.1 for rat IgG or PBS treated control mice; for effect on amount of axonal damage: spinal cord, dephosphorylated neurofilament-H
Source text: (§1) Frozen sections from lumbar spinal cord (10 μm) were acetone-fixed and immunostained for oligodendrocyte content with an antibody against CNPase (Sigma; diluted 1:100); for axonal damage with an antibody against non-phosphorylated neurofilament-H (SM 1-32; Stemberger Monoclonals Incorporated, Lutherville, Md., USA; diluted 1:1000), and for GluR2 and NR1 content using mouse mAbs obtained from Zymed Laboratories Inc., Carlton, San Francisco, Calif. Antibody staining was visualized with an avidin:biotinylated enzyme complex (Vector Laboratories, Burlingame, Calif., USA). Sections were viewed under a light microscope, and cells stained with the anti-CNPase and SM 1-32 antibodies were counted.
PBS-perfused spinal cords were homogenized in lysis buffer (50 mM Tris pH 7.4, 100 μM EDTA, 0.25 M sucrose, 1% sodium dodecyl sulfate [SDS], 1% Nonidet P-40 [NP40], 1 μg/mL leupeptin, 1 μg/mL pepstatin A, and 100 μM phenylmethylsulfonylfluoride) at 4° C. using a motor-driven homogenizer (Virtus, Gardiner, N.Y.). Spinal cord lysates from each group of mice were pooled and centrifuged at 10000 g for 10 minutes at 4° C. to remove tissue debris. Protein concentrations of the supernatants were determined as described (Peterson, 1983), and 100 μg of protein resolved on 10% polyacrylamide SDS-gels under reducing conditions and then electrophoretically transferred to Hybond C Extra nitrocellulose membranes (Amersham Life Science, England). The membranes were blocked with 3% bovine serum albumin in TBS-T (20 mM Tris, 137 mM NaCl, pH 7.6 containing 0.1% Tween-20) for 2 hours at room temperature. Immunodetection was accomplished by incubation overnight at 4° C. with SM1-32 (1:500 dilution), anti-CNPase (1:100 dilution) antibody, or anti-GluR2 and NR1 mAbs (1:200 dilution). The membranes were washed thrice with TBS-T and incubated with horseradish peroxidase-conjugated anti-mouse IgG (Sigma) diluted 1:5000 in TBS-T. Immunoreactivity was detected by Enhanced Chemiluminescence (Amersham International plc. England) and autoradiography.

GluR2 = GluR2 subunit expression in spinal cord; settings: spinal cord of EAE mice, immunohistochemistry and Western blot
Experimental: PBS-perfused spinal cords were homogenized in lysis buffer (50 mM Tris pH 7.4, 100 μM EDTA, 0.25 M sucrose, 1% sodium dodecyl sulfate [SDS], 1% Nonidet P-40 [NP40], 1 μg/mL leupeptin, 1 μg/mL pepstatin A, and 100 μM phenylmethylsulfonylfluoride) at 4° C. using a motor-driven homogenizer (Virtus, Gardiner, N.Y.). […] The membranes were washed thrice with TBS-T and incubated with horseradish peroxidase-conjugated anti-mouse IgG (Sigma) diluted 1:5000 in TBS-T. Immunoreactivity was detected by Enhanced Chemiluminescence (Amersham International plc. England) and autoradiography.

[4] = tested on: NMDA receptor subunit NR1; assay: NMDA receptor subunit NR1 expression in spinal cord; settings: spinal cord of EAE mice, immunohistochemistry and Western blot
Source text: as §1
PBS-perfused spinal cords were homogenized in lysis buffer (50 mM Tris pH 7.4, 100 μM EDTA, 0.25 M sucrose, 1% sodium dodecyl sulfate [SDS], 1% Nonidet P-40 [NP40], 1 μg/mL leupeptin, 1 μg/mL pepstatin A, and 100 μM phenylmethylsulfonylfluoride) at 4° C. using a motor-driven homogenizer (Virtus, Gardiner, N.Y.). […] Protein concentrations of the supernatants were determined as described (Peterson, 1983), and 100 μg of protein resolved on 10% polyacrylamide SDS-gels under reducing conditions and then electrophoretically transferred to Hybond C Extra nitrocellulose membranes (Amersham Life Science, England). […]

Molecule	effectiveness of prolonged treatment on disease severity [1]	effect on advanced EAE (clinical symptoms) [1]	effect on development of EAE (clinical symptoms) [1]	reductions in the numbers of apoptotic cells [2] [%]	average relative densities of neurofilament-H [3]	effect on amount of axonal damage [3]	GluR2 expression (GluR2)	NMDA receptor (NR1 subunit) expression [4]
NS(=O)(=O)c1cccc2c1c([N+](=O)[O-])cc1nc(O)c(O)nc12 [NBQX, 2,3-dihydroxy-6-nitro-7-sulfamoylbenzo(f)quinoxaline]	NBQX+GPE+anti-MAdCAM-1>NBQX+GPE>NBQX>GPE	only caused temporary remission	suppressed EAE, but to a greater extent than achieved with GPE	~30	3.5	almost halved the amount of axonal damage	downregulates the AMPA receptor	caused down-regulation of the NMDA receptor
Gly-Pro-Glu [GPE]	NBQX+GPE+anti-MAdCAM-1>NBQX+GPE>NBQX>GPE	only caused temporary remission	suppressed EAE, up to 27 days after suspension of treatment	~30	3.2	almost halved the amount of axonal damage	negligible effect	not effective
